According to patent US12157730B2, “Heteroaryl derivative, method for producing same, and pharmaceutical composition comprising same as effective component” (VORONOI INC., priority 2019, dated 2024):

Molecular target: T1, Ba/F3 cell EGFR Exon20 ins NPH (Homo sapiens, UniProt P00533, INS773NPH)
T1 construct: expressed in transfected cells; host or cells: Ba/F3
Assay: Ba/F3 cell proliferation suppression, EGFR Exon20 ins NPH
Assay type: cell-based
Details: GI50 class; Ba/F3 cell line with NPH inserted at Exon20 of EGFR; 72 hours
Summary of the method: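 Cells were seeded 24 h before dosing and then treated for 72 hours with compound at final concentrations of 0.3 nM to 50 um. Live cells were measured by CellTiter-Glo luminescence, and GI50 values were derived from growth ratio relative to control across three repeats.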

| Ba/F3 (NPH) Activity | Structure (SMILES) |
| --- | --- |
| A (GI50 < 50 nM) | C=CC(=O)Nc1cc(Nc2cc(N3OCC[C@@H]3c3cccc(F)c3F)ncn2)c(OC)cc1N1CCO[C@H](C)C1 [compound 889, N-(5-((6-((R)-3-(2,3-difluorophenyl)isoxazolidine-2-yl)pyrimidine-4-yl)amino)-4-methoxy-2-((R)-2-methylmorpholino)phenyl)acrylamide] |
| C (500 nM ≤ GI50 < 5000 nM) | C=CC(=O)Nc1cc(Nc2cc(N3OCC[C@H]3c3c(F)cccc3F)ncn2)c(OC)cc1N1CCC(N2CCOCC2)CC1 [compound 897, N-(5-((6-((S)-3-(2,6-difluorophenyl)isoxazolidine-2-yl)pyrimidine-4-yl)amino)-4-methoxy-2-(4-morpholinopiperidine-1-yl)phenyl)acrylamide] |
| A (GI50 < 50 nM) | C=CC(=O)Nc1cc(Nc2cc(N3OCC[C@@H]3c3cc(F)cc(F)c3)ncn2)c(OC)cc1N1CCC(N2C[C@H](C)O[C@@H](C)C2)CC1 [compound 752, N-(5-((6-((R)-3-(3,5-difluorophenyl)isoxazolidine-2-yl)pyrimidine-4-yl)amino)-2-(4-((2S,6S)-2,6-dimethylmorpholino)piperidine-1-yl)-4-methoxyphenyl) acrylamide] |
| A (GI50 < 50 nM) | C=CC(=O)Nc1cc(Nc2cc(N3OCC[C@@H]3Cc3ccccc3)ncn2)c(OC)cc1N1CCC(N2CCOCC2)CC1 [compound 965, N-(5-((6-((S)-3-benzylisoxazolidine-2-yl)pyrimidine-4-yl)amino)-4-methoxy-2-(4-morpholinopiperidine-1-yl)phenyl)acrylamide] |
| A (GI50 < 50 nM) | C=CC(=O)Nc1cc(Nc2cc(N3OCC[C@@H]3c3ccccc3)ncn2)c(OC)cc1N1CCC(N2CCC(N(C)C)CC2)CC1 [compound 740, N-(2-(4-(dimethylamino)-[1,4'-bipiperidine]-1'-yl)-4-methoxy-5-((6-((R)-3-phenylisoxazolidine-2-yl)pyrimidine-4-yl)amino)phenyl)acrylamide] |
| A (GI50 < 50 nM) | C=CC(=O)Nc1cc(Nc2cc(N3OCC[C@@H]3c3ccc(Cl)c(Cl)c3)ncn2)c(OC)cc1N1CCN(C(C)=O)CC1 [compound 675, N-(2-(4-acetylpiperazine-1-yl)-5-((6-((R)-3-(3,4-dichlorophenyl)isoxazolidine-2-yl)pyrimidine-4-yl)amino)-4-methoxyphenyl) acrylamide] |
| B (50 nM ≤ GI50 < 500 nM) | C=CC(=O)Nc1cc(Nc2cc(N3OCC[C@@H]3Cc3cccc(N(C)C)c3)ncn2)c(OC)cc1N1CCC(N2C[C@@H]3C[C@H]2CO3)CC1 [compound 1048, N-(2-(4-((1S,4S)-2-oxa-5-azabicyclo [2.2.1]heptane-5-yl)piperidine-1-yl)-5-((6-((S)-3-(3-(dimethylamino)benzyl)isoxazolidine-2-yl)pyrimidine-4-yl)amino)-4-methoxyphenyl) acrylamide] |
| A (GI50 < 50 nM) | C=CC(=O)Nc1cc(Nc2cc(N3OCC[C@@H]3c3ccc(F)c(Cl)c3)ncn2)c(OC)cc1N1CCC(N2C[C@@H]3C[C@H]2CO3)CC1 [compound 716, N-(2-(4-((1S,4S)-2-oxa-5-azabicyclo[2.2.1]heptane-5-yl)piperidine-1-yl)-5-((6-((R)-3-(3-chloro-4-fluorophenyl)isoxazolidine-2-yl)pyrimidine-4-yl)amino)-4-methoxyphenyl) acrylamide] |
| A (GI50 < 50 nM) | C=CC(=O)Nc1cc(Nc2cc(N3OCC[C@@H]3c3ccc(F)cc3)ncn2)c(OC)cc1N1CCC(N2CCOCC2)CC1 [compound 786, N-(5-((6-((R)-3-(4-fluorophenyl)isoxazolidine-2-yl)pyrimidine-4-yl)amino)-4-methoxy-2-(4-morpholinopiperidine-1-yl)phenyl)acrylamide] |
| A (GI50 < 50 nM) | C=CC(=O)Nc1cc(Nc2cc(N3OCC[C@@H]3c3cc(F)cc(F)c3)ncn2)c(OC)cc1N1CCC(N2CCCN(C3CC3)CC2)CC1 [compound 717, N-(2-(4-(4-cyclopropyl-1,4-diazepane-1-yl)piperidine-1-yl)-5-((6-((R)-3-(3,5-difluorophenyl)isoxazolidine-2-yl)pyrimidine-4-yl)amino)-4-methoxyphenyl) acrylamide] |
| A (GI50 < 50 nM) | C=CC(=O)Nc1cc(Nc2cc(N3OCC[C@@H]3c3cc(F)ccc3F)ncn2)c(OC)cc1N1CCC(N2CCN(C)CC2)CC1 [compound 765, N-(5-((6-((R)-3-(2,5-difluorophenyl)isoxazolidine-2-yl)pyrimidine-4-yl)amino)-4-methoxy-2-(4-(4-methylpiperazine-1-yl)piperidine-1-yl)phenyl)acrylamide] |
| A (GI50 < 50 nM) | C=CC(=O)Nc1cc(Nc2cc(N3OCC[C@@H]3c3cccc(C(F)(F)F)c3)ncn2)c(OC)cc1N1CCC(N2CCN(C3CC3)[C@@H](C)C2)CC1 [compound 941, N-(2-(4-((S)-4-cyclopropyl-3-methylpiperazine-1-yl)piperidine-1-yl)-4-methoxy-5-((6-((R)-3-(3-(trifluoromethyl)phenyl)isoxazolidine-2-yl)pyrimidine-4-yl)amino)phenyl) acrylamide] |
| A (GI50 < 50 nM) | C=CC(=O)Nc1cc(Nc2cc(N3OCC[C@@H]3Cc3ccccc3)ncn2)c(OC)cc1N1C[C@@H]2C[C@H]1CN2CC [compound 950, N-(5-((6-((S)-3-benzylisoxazolidine-2-yl)pyrimidine-4-yl)amino)-2-((1S,4S)-5-ethyl-2,5-diazabicyclo [2.2.1]heptane-2-yl)-4-methoxyphenyl) acrylamide] |

More lines, now with the values behind:

| Structure (SMILES) | Ba/F3 (NPH) Activity |
| --- | --- |
| C=CCN1CCN(C2CCN(c3cc(OC)c(Nc4cc(N5OCC[C@@H]5c5cc(F)ccc5F)ncn4)cc3NC(=O)C=C)CC2)CC1 [Example 88, N-(2-(4-(4-allylpiperazine-1-yl)piperidine-1-yl)-5-((6-((R)-3-(2,5-difluorophenyl)isoxazolidine-2-yl)pyrimidine-4-yl)amino)-4-methoxyphenyl) acrylamide] | A (GI50 < 50 nM) |
| C=CC(=O)Nc1cc(Nc2cc(N3OCC[C@@H]3c3cccc(C)c3F)ncn2)c(OC)cc1N1CCC(N2C[C@@H]3C[C@H]2CO3)CC1 [compound 362, N-(2-(4-((1S,4S)-2-oxa-5-azabicyclo[2.2.1]heptane-5-yl)piperidine-1-yl)-5-((6-((R)-3-(2-fluoro-3-methylphenyl)isoxazolidine-2-yl)pyrimidine-4-yl)amino)-4-methoxyphenyl) acrylamide] | A (GI50 < 50 nM) |
| C=CC(=O)Nc1cc(Nc2cc(N3OCC[C@@H]3c3cccc(Cl)c3C)ncn2)c(OC)cc1N1CCC(N2CCN(C)CC2)CC1 [compound 485, N-(5-((6-((R)-3-(3-chloro-2-methylphenyl)isoxazolidine-2-yl)pyrimidine-4-yl)amino)-4-methoxy-2-(4-(4-methylpiperazine-1-yl)piperidine-1-yl)phenyl) acrylamide] | A (GI50 < 50 nM) |
| C=CC(=O)Nc1cc(Nc2cc(N3OCC[C@@H]3c3cccc(F)c3Cl)ncn2)c(OC)cc1N1CCC(N2CCN(CC)CC2)CC1 [compound 602, N-(5-((6-((R)-3-(2-chloro-3-fluorophenyl)isoxazolidine-2-yl)pyrimidine-4-yl)amino)-2-(4-(4-thylpiperazine-1-yl)piperidine-1-yl)-4-methoxyphenyl) acrylamide] | A (GI50 < 50 nM) |
| C=CC(=O)Nc1cc(Nc2cc(N3OCC[C@@H]3c3ccc(Cl)c(Cl)c3F)ncn2)c(OC)cc1N1CC[C@@H](N2CCOCC2)C1 [Example 294, N-(5-((6-((R)-3-(3,4-dichloro-2-fluorophenyl)isoxazolidine-2-yl)pyrimidine-4-yl)amino)-4-methoxy-2-((R)-3-morpholinopyrolidine-1-yl)phenyl)acrylamide] | B (50 nM ≤ GI50 < 500 nM) |
| C=CC(=O)Nc1cc(Nc2cc(N3OCC[C@@H]3c3ccc(F)c(Cl)c3F)ncn2)c(OC)cc1N1CCC(N2CCN(C3CC3)CC2)CC1 [Example 168] | A (GI50 < 50 nM) |
| C=CC(=O)Nc1cc(Nc2cc(N3OCC[C@@H]3c3cccc(F)c3)ncn2)c(OC)cc1N1CC[C@@H](N(C)C)C1 [Example 247, N-(2-((R)-3-(dimethylamino)pyrolidine-1-yl)-5-((6-((R)-3-(3-fluorophenyl)isoxazolidine-2-yl)pyrimidine-4-yl)amino)-4-methoxyphenyl) acrylamide] | A (GI50 < 50 nM) |
| C=CC(=O)Nc1cc(Nc2cc(N3OCC[C@@H]3c3cccc(Cl)c3)ncn2)c(OC)cc1N1CCN(C2COC2)CC1 [compound 470, N-(5-((6-((R)-3-(3-chlorophenyl)isoxazolidine-2-yl)pyrimidine-4-yl)amino)-4-methoxy-2-(4-(oxetane-3-yl)piperazine-1-yl)phenyl) acrylamide] | A (GI50 < 50 nM) |
| C=CC(=O)Nc1cc(Nc2cc(N3OCC[C@@H]3c3cc(F)ccc3F)ncn2)c(OC)cc1N1CCC(N2CCN(C(C)C)CC2)CC1 [compound 303, N-(5-((6-((R)-3-(2,5-difluorophenyl)isoxazolidine-2-yl)pyrimidine-4-yl)amino)-2-(4-(4-isopropylpiperazine-1-yl)piperidine-1-yl)-4-methoxyphenyl) acrylamide] | A (GI50 < 50 nM) |
| C=CC(=O)Nc1cc(Nc2cc(N3OCC[C@@H]3c3c(F)ccc(F)c3F)ncn2)c(OC)cc1N1CCC(N2CCN(C3CC3)CC2)CC1 [Example 169, N-(2-(4-(4-cyclopropylpiperazine-1-yl)piperidine-1-yl)-4-methoxy-5-((6-((R)-3-(2,3,6-trifluorophenyl)isoxazolidine-yl)pyrimidine-4-yl)amino)phenyl)acrylamide] | A (GI50 < 50 nM) |
| C=CC(=O)Nc1cc(Nc2cc(N3OCC[C@@H]3c3cccc(F)c3Cl)ncn2)c(OC)cc1N1CCC(N2CCN(C)CC2)CC1 [compound 560, N-(5-((6-((R)-3-(2-chloro-3-fluorophenyl)isoxazolidine-2-yl)pyrimidine-4-yl)amino)-4-methoxy-2-(4-(4-methylpiperazine-1-yl)piperidine-1-yl)phenyl) acrylamide] | A (GI50 < 50 nM) |
